# Data reported in PubChem BioAssay AID1963971 (Molecular Pharmacology Branch, DTP, NCI, 2024).
# System: 953936-095-R-J2-PDC spheroids with HUVEC/MSC, viability
# Experiment: Anticancer human tumor 953936-095-R-J2-PDC patient-derived cervical squamous cell carcinoma cell line growth inhibition [PI3K]
# Conditions: for IC50: curve of first compound; for viability, T/C: stronger effect = lower value
# Outline: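 Tumor cells grown as multi-cell spheroids with HUVEC endothelial cells and MSC fibroblast-like stroma were treated with targeted agents combined with inavolisib, alpelisib, duvelisib or copanlisib. Doses fell in half-log steps from near clinical Cmax, else from 10 microM. Viability was measured.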
# [1] = second compound 0.00316 µM, first compound 0.0316 µM
# [2] = second compound 0.00316 µM, first compound 0.1 µM
# [3] = second compound 0.00316 µM, first compound 0.316 µM
# [4] = second compound 0.00316 µM, first compound 1 µM
# [5] = second compound 0.00316 µM, first compound 3.16 µM
# [6] = second compound 0.00316 µM, first compound 10 µM
# [7] = second compound 0.01 µM, first compound 0.0316 µM
# [8] = second compound 0.01 µM, first compound 0.1 µM
# [9] = second compound 0.01 µM, first compound 0.316 µM
# [10] = second compound 0.01 µM, first compound 1 µM
# [11] = second compound 0.01 µM, first compound 3.16 µM
# [12] = second compound 0.01 µM, first compound 10 µM
# [13] = second compound 0.0316 µM, first compound 0.0316 µM
# [14] = second compound 0.0316 µM, first compound 0.1 µM
# [15] = second compound 0.0316 µM, first compound 0.316 µM
# [16] = second compound 0.0316 µM, first compound 1 µM
# [17] = second compound 0.0316 µM, first compound 3.16 µM
# [18] = second compound 0.0316 µM, first compound 10 µM
# [19] = second compound 0.1 µM, first compound 0.0316 µM
# [20] = second compound 0.1 µM, first compound 0.1 µM
# [21] = second compound 0.1 µM, first compound 0.316 µM
# [22] = second compound 0.1 µM, first compound 1 µM
# [23] = second compound 0.1 µM, first compound 3.16 µM
# [24] = second compound 0.1 µM, first compound 10 µM
# [25] = second compound 0.316 µM, first compound 0.0316 µM
# [26] = second compound 0.316 µM, first compound 0.1 µM
# [27] = second compound 0.316 µM, first compound 0.316 µM
# [28] = second compound 0.316 µM, first compound 1 µM
# [29] = second compound 0.316 µM, first compound 3.16 µM
# [30] = second compound 0.316 µM, first compound 10 µM
# [31] = second compound 1 µM, first compound 0.0316 µM
# [32] = second compound 1 µM, first compound 0.1 µM
# [33] = second compound 1 µM, first compound 0.316 µM
# [34] = second compound 1 µM, first compound 1 µM
# [35] = second compound 1 µM, first compound 3.16 µM
# [36] = second compound 1 µM, first compound 10 µM
# 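Also: spheroids exposed to compounds for seven days before read-out.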
structure (smiles),measurement,setting,value
C#Cc1c(F)ccc2cc(O)cc(-c3ncc4c(N5CC6CCC(C5)N6)nc(OCC56CCCN5CC(F)C6)nc4c3F)c12 (stereo not drawn) + COc1c(OCCCN2CCOCC2)ccc2c3n(c(=NC(=O)c4cnc(N)nc4)nc12)CCN3,IC50,second compound 0.00316 µM,> 10000 nM
same,IC50,second compound 0.01 µM,3920 nM
same,IC50,second compound 0.0316 µM,< 31.6 nM
same,IC50,second compound 0.1 µM,< 31.6 nM
same,IC50,second compound 0.316 µM,< 31.6 nM
same,IC50,second compound 1 µM,< 31.6 nM
same,"viability, T/C",[1],81.9%
same,"viability, T/C",[2],87.8%
same,"viability, T/C",[3],86.6%
same,"viability, T/C",[4],92.2%
same,"viability, T/C",[5],72%
same,"viability, T/C",[6],58.9%
same,"viability, T/C",[7],75.5%
same,"viability, T/C",[8],74.1%
same,"viability, T/C",[9],69.1%
same,"viability, T/C",[10],58.4%
same,"viability, T/C",[11],54.3%
same,"viability, T/C",[12],40%
same,"viability, T/C",[13],40.1%
same,"viability, T/C",[14],39.5%
same,"viability, T/C",[15],38.7%
same,"viability, T/C",[16],33.8%
same,"viability, T/C",[17],25.7%
same,"viability, T/C",[18],19.6%
same,"viability, T/C",[19],18.3%
same,"viability, T/C",[20],18.8%
same,"viability, T/C",[21],14.1%
same,"viability, T/C",[22],10.9%
same,"viability, T/C",[23],8.08%
same,"viability, T/C",[24],6.07%
same,"viability, T/C",[25],5.75%
same,"viability, T/C",[26],4.83%
same,"viability, T/C",[27],4.36%
same,"viability, T/C",[28],3.39%
same,"viability, T/C",[29],2.56%
same,"viability, T/C",[30],1.89%
same,"viability, T/C",[31],1.56%
same,"viability, T/C",[32],1.33%
same,"viability, T/C",[33],0.98%
same,"viability, T/C",[34],1.02%
same,"viability, T/C",[35],0.79%
same,"viability, T/C",[36],0.41%
C=CC(=O)N1CCN(c2nc(=O)n(-c3c(C)ccnc3C(C)C)c3nc(-c4c(O)cccc4F)c(F)cc23)C(C)C1 (stereo not drawn) + COc1c(OCCCN2CCOCC2)ccc2c3n(c(=NC(=O)c4cnc(N)nc4)nc12)CCN3,IC50,second compound 0.00316 µM,> 10000 nM
same,IC50,second compound 0.01 µM,> 10000 nM
same,IC50,second compound 0.0316 µM,< 31.6 nM
same,IC50,second compound 0.1 µM,< 31.6 nM
same,IC50,second compound 0.316 µM,< 31.6 nM
same,IC50,second compound 1 µM,< 31.6 nM
same,"viability, T/C",[1],88.7%
same,"viability, T/C",[2],91%
same,"viability, T/C",[3],108%
same,"viability, T/C",[4],106%
same,"viability, T/C",[5],101%
same,"viability, T/C",[6],93.1%
same,"viability, T/C",[7],72.8%
same,"viability, T/C",[8],79%
same,"viability, T/C",[9],79.3%
same,"viability, T/C",[10],84%
same,"viability, T/C",[11],89.9%
same,"viability, T/C",[12],91.9%
same,"viability, T/C",[13],41.4%
same,"viability, T/C",[14],43.6%
same,"viability, T/C",[15],44.4%
same,"viability, T/C",[16],46%
same,"viability, T/C",[17],51.2%
same,"viability, T/C",[18],45.1%
same,"viability, T/C",[19],18.6%
same,"viability, T/C",[20],18.4%
same,"viability, T/C",[21],18.4%
same,"viability, T/C",[22],20.2%
same,"viability, T/C",[23],20.4%
same,"viability, T/C",[24],15.2%
same,"viability, T/C",[25],7.53%
same,"viability, T/C",[26],7.13%
same,"viability, T/C",[27],6.33%
same,"viability, T/C",[28],6.9%
same,"viability, T/C",[29],6.5%
same,"viability, T/C",[30],3.82%
same,"viability, T/C",[31],1.94%
same,"viability, T/C",[32],1.84%
same,"viability, T/C",[33],1.67%
same,"viability, T/C",[34],1.83%
same,"viability, T/C",[35],1.85%
same,"viability, T/C",[36],1.04%
CC(Cn1ccc(-c2ccc(C#N)c(Cl)c2)n1)NC(=O)c1cc(C(C)O)[nH]n1 (stereo not drawn) + COc1c(OCCCN2CCOCC2)ccc2c3n(c(=NC(=O)c4cnc(N)nc4)nc12)CCN3,IC50,second compound 0.00316 µM,> 10000 nM
same,IC50,second compound 0.01 µM,> 10000 nM
same,IC50,second compound 0.0316 µM,< 31.6 nM
same,IC50,second compound 0.1 µM,< 31.6 nM
same,IC50,second compound 0.316 µM,< 31.6 nM
same,IC50,second compound 1 µM,< 31.6 nM
same,"viability, T/C",[1],80.3%
same,"viability, T/C",[2],88.3%
same,"viability, T/C",[3],84.1%
same,"viability, T/C",[4],101%
same,"viability, T/C",[5],90.7%
same,"viability, T/C",[6],89.2%
same,"viability, T/C",[7],68.8%
same,"viability, T/C",[8],71.6%
same,"viability, T/C",[9],76.3%
same,"viability, T/C",[10],71.1%
same,"viability, T/C",[11],78.9%
same,"viability, T/C",[12],70.2%
same,"viability, T/C",[13],43.5%
same,"viability, T/C",[14],40.9%
same,"viability, T/C",[15],42.6%
same,"viability, T/C",[16],39.8%
same,"viability, T/C",[17],46.2%
same,"viability, T/C",[18],41.1%
same,"viability, T/C",[19],19.4%
same,"viability, T/C",[20],19.4%
same,"viability, T/C",[21],20.7%
same,"viability, T/C",[22],20.3%
same,"viability, T/C",[23],21.8%
same,"viability, T/C",[24],19.8%
same,"viability, T/C",[25],7.44%
same,"viability, T/C",[26],6.25%
same,"viability, T/C",[27],7.53%
same,"viability, T/C",[28],6.55%
same,"viability, T/C",[29],7.13%
same,"viability, T/C",[30],8.7%
same,"viability, T/C",[31],1.6%
same,"viability, T/C",[32],1.39%
same,"viability, T/C",[33],2%
same,"viability, T/C",[34],1.92%
same,"viability, T/C",[35],2.08%
same,"viability, T/C",[36],1.97%
Cn1nccc1Nc1nccc(-c2ccn(C(CO)c3ccc(Cl)c(F)c3)c(=O)c2)n1 (stereo not drawn) + COc1c(OCCCN2CCOCC2)ccc2c3n(c(=NC(=O)c4cnc(N)nc4)nc12)CCN3,IC50,second compound 0.00316 µM,> 10000 nM
same,IC50,second compound 0.01 µM,> 10000 nM
same,IC50,second compound 0.0316 µM,< 31.6 nM
same,IC50,second compound 0.1 µM,< 31.6 nM
same,IC50,second compound 0.316 µM,< 31.6 nM
same,IC50,second compound 1 µM,< 31.6 nM
same,"viability, T/C",[1],79.8%
same,"viability, T/C",[2],78.6%
same,"viability, T/C",[3],85.1%
same,"viability, T/C",[4],68.8%
same,"viability, T/C",[5],69.8%
same,"viability, T/C",[6],67.5%
same,"viability, T/C",[7],63.5%
same,"viability, T/C",[8],64.7%
same,"viability, T/C",[9],67.3%
same,"viability, T/C",[10],61.7%
same,"viability, T/C",[11],59.4%
same,"viability, T/C",[12],49.1%
same,"viability, T/C",[13],39.4%
same,"viability, T/C",[14],38.2%
same,"viability, T/C",[15],36.2%
same,"viability, T/C",[16],30.5%
same,"viability, T/C",[17],32.3%
same,"viability, T/C",[18],31.4%
same,"viability, T/C",[19],16.1%
same,"viability, T/C",[20],15.6%
same,"viability, T/C",[21],12.8%
same,"viability, T/C",[22],10.8%
same,"viability, T/C",[23],8.15%
same,"viability, T/C",[24],5.83%
same,"viability, T/C",[25],4.89%
same,"viability, T/C",[26],4.56%
same,"viability, T/C",[27],3.55%
same,"viability, T/C",[28],2.04%
same,"viability, T/C",[29],1.28%
same,"viability, T/C",[30],1.21%
same,"viability, T/C",[31],1.1%
same,"viability, T/C",[32],1.11%
same,"viability, T/C",[33],0.44%
same,"viability, T/C",[34],0.35%
same,"viability, T/C",[35],0.28%
same,"viability, T/C",[36],0.34%
